{"source": "patent US20110312961A1", "about": "“2,5-Disubstituted Morpholine Orexin REceptor Antagonists” (priority 2008, published 2011)", "key": {"[1]": {"target": "T1, rat native α7 receptors (Rattus norvegicus, UniProt Q05941)", "T1 construct": "rat native α7 receptors in rat hippocampal membranes; from tissue; host or cells: rat (female Sprague-Dawley) hippocampus membranes", "T1 sequence (Q05941 23-502)": "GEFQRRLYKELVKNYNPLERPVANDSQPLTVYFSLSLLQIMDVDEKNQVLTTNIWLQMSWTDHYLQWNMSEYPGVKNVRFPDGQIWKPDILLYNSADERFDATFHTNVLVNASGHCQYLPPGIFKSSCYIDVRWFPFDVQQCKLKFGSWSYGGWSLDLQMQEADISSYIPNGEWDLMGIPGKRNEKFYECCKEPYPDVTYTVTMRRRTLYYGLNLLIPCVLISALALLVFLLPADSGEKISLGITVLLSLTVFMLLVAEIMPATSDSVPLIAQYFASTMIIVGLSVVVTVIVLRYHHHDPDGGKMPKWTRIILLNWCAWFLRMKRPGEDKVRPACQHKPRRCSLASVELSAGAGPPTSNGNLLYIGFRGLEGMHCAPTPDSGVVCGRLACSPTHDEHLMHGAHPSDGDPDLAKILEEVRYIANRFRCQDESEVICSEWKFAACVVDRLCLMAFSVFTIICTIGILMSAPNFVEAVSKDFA", "assay": "[3H]MLA radioligand binding, α7 NNR subtype, rat hippocampal membranes", "details": "read-out: Ki, inhibition of [3H]methyllycaconitine (MLA) binding to rat native α7 receptors", "description": "Rats (female, Sprague-Dawley), weighing 150-250 g, were maintained on a 12 h light/dark cycle and were allowed free access to water and food supplied by PMI Nutrition International, Inc. Animals were anesthetized with 70% CO2, and then decapitated. Brains were removed and placed on an ice-cold platform. The hippocampus was removed and placed in 10 volumes (weight:volume) of ice-cold preparative buffer (137 mM NaCl, 10.7 mM KCl, 5.8 mM KH2PO4, 8 mM Na2HPO4, 20 mM HEPES (free acid), 5 mM iodoacetamide, 1.6 mM EDTA, pH 7.4); PMSF, dissolved in methanol to a final concentration of 100 μM, was added and the tissue suspension was homogenized by Polytron. […] Protein was determined by the method of Lowry et al., J. Biol. Chem. 193: 265 (1951), using bovine serum albumin as the standard.\nThe binding of [^3H]MLA was measured using a modification of the methods of Davies et al., Neuropharmacol. […] The binding of [^3H]MLA was determined using a 2 h incubation at 21° C. […] Non-specific binding was determined by inclusion of 50 μM non-radioactive MLA in selected wells.\nThe inhibition of [^3H]MLA binding by test compounds was determined by including seven different concentrations of the test compound in selected wells. […] Inhibition constants (Ki values), reported in nM, were calculated from the IC50 values using the method of Cheng et al., Biochem. Pharmacol. 22: 3099-3108 (1973)."}, "[2]": {"target": "T2, human native ganglion-type nicotinic receptors (likely α3β4) (Homo sapiens, UniProt P30926+P32297)", "T2 construct": "human native ganglion-type nicotinic receptors (likely α3β4); endogenous in cells; host or cells: SH-SY5Y", "T2 sequence (P32297 32-505)": "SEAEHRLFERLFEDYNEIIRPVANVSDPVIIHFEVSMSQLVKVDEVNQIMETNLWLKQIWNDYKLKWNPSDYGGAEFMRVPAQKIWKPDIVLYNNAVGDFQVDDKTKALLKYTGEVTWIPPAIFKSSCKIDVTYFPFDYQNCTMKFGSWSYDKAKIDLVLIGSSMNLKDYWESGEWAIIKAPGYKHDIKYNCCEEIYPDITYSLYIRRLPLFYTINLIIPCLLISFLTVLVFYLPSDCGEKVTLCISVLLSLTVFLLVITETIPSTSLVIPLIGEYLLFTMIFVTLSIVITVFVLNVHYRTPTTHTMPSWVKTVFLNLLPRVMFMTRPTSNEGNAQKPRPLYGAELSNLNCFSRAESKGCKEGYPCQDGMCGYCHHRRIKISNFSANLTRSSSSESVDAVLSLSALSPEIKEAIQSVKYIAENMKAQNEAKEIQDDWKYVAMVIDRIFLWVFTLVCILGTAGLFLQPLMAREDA", "T2 sequence (P30926 22-498)": "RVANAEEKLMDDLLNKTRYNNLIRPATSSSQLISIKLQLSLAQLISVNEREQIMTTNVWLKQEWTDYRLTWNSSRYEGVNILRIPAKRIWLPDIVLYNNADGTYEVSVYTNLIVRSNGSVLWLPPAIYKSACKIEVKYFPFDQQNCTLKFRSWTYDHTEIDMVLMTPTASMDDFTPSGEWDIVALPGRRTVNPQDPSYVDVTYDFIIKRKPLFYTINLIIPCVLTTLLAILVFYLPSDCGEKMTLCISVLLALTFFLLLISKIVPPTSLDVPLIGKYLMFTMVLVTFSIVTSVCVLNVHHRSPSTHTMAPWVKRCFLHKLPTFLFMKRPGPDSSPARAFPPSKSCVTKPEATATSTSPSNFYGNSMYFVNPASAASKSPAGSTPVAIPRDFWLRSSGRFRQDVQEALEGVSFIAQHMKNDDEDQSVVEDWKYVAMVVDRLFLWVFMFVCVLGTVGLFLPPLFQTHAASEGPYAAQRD", "assay": "[3H]epibatidine binding, SH-SY5Y membranes", "details": "read-out: Human ganglionic (SH-SY5Y), Ki"}}}
{"smiles": "O=C(N[C@@H]1C2CCN(CC2)[C@H]1Cc1cccnc1)c1cc(F)cc(F)c1", "note": "[Compound A]", "values": [{"measurement": "Ki", "setting": "[1]", "value": 0.1, "unit": "µM"}, {"measurement": "Ki", "setting": "[2]", "value": 48, "unit": "µM"}]}
